Laboratory results taken from PubChem BioAssay (NCI).
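All cell lines were grown in 96-well plates and treated with compound for 48 hours. Definition used: TGI = concentration required for complete inhibition of growth.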

Legend:
Assay in all cases: NCI-60 cell line screen, 48 h
MOLT-4 leukemia = tested on: MOLT-4 leukemia
HCC-2998 colon = tested on: HCC-2998 colon
U251 CNS = tested on: U251 CNS
COLO 205 colon = tested on: COLO 205 colon
MDA-MB-435 = tested on: MDA-MB-435
SNB-19 CNS = tested on: SNB-19 CNS
SK-MEL-2 melanoma = tested on: SK-MEL-2 melanoma
UACC-62 melanoma = tested on: UACC-62 melanoma
PC-3 prostate = tested on: PC-3 prostate
SF-295 CNS = tested on: SF-295 CNS
DU-145 prostate = tested on: DU-145 prostate
HT29 colon = tested on: HT29 colon

SMILES	TGI (MOLT-4 leukemia) [µM]	TGI (HCC-2998 colon) [µM]	TGI (U251 CNS) [µM]	TGI (COLO 205 colon) [µM]	TGI (MDA-MB-435) [µM]	TGI (SNB-19 CNS) [µM]	TGI (SK-MEL-2 melanoma) [µM]	TGI (UACC-62 melanoma) [µM]	TGI (PC-3 prostate) [µM]	TGI (SF-295 CNS) [µM]	TGI (DU-145 prostate) [µM]	TGI (HT29 colon) [µM]
N#Cc1c(Cl)cccc1Oc1ccc(S(=O)(=O)/N=C(\NO)Nc2ccc(Cl)cc2)cc1	44.1	29	33.1	33.6	31.7	30	38.5	29.3	30.6	32.3	32.9	31.5
O=[N+]([O-])/C(C(Cl)=C(Cl)Cl)=C(\Nc1cccc2cccnc12)Sc1ccccc1	37.4	> 100	54.2	31.6	42.7	> 100	82.5	88.4	80.5	51.4	78.4	73.6
CC1(C)C2CC1C(/C=N\OCC(=O)O)=CC2=O (configuration not stated)	> 100	> 100	> 100	> 100	> 100	> 100	> 100	> 100	> 100	> 100	> 100	> 100
COC(=O)/N=[N+](\[O-])C(c1ccc(Cl)cc1)c1ccc(Cl)cc1	> 100	> 100	> 100	59.1	> 100	> 100	> 100	> 100	> 100	–	> 100	> 100
CCCCCCCCCCCCOCCCCCCCCC/C=C/c1ccc2c(c1)OCCOCCOCCOCCO2	> 100	44.7	40.6	35.2	33.8	77.6	30.2	30.3	39.9	34.2	> 100	45.4
CN(C(=O)C12C3C4C1C1C2C3C41C(=O)O)C(C)(C)C (configuration not stated)	> 100	> 100	> 100	> 100	> 100	> 100	> 100	> 100	> 100	> 100	> 100	> 100
Clc1ccccc1-c1nn2c(CCCCCCCCc3nnc4sc(-c5ccccc5Cl)nn34)nnc2s1	> 100	> 100	> 100	> 100	> 100	> 100	> 100	> 100	> 100	> 100	> 100	> 100
COC(=O)/C=C/COCC1C2CCC(=O)C21 (configuration not stated)	> 100	> 100	> 100	> 100	> 100	> 100	> 100	> 100	> 100	> 100	> 100	> 100
CN(O)C(=O)c1ccc(OCc2cccc(Cl)c2)cc1	> 100	> 53.3	> 100	> 100	> 100	> 100	> 100	> 79.4	> 100	> 82.8	98.2	> 100
